PubChem BioAssay (NCI)
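Following 48 hours of exposure in 96-well plates, responses at five concentrations were used to interpolate endpoints linearly. At the GI50, growth is halved. At the TGI there is no net growth.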 Where a SMILES comes first, the peptide text is derived from it. [ ]: non-standard residue; d: D form. The star is where a group is joined. dTle = CC(C)(C)[C@@H](N)C(=O)O; 4Abz = Nc1ccc(C(=O)O)cc1; NHOH = ON*

Assays:
Assay in all cases: DTP human tumour cell line panel, 48 h
NCI-H23 lung = tested on: NCI-H23 lung
NCI-H522 lung = tested on: NCI-H522 lung
MDA-MB-435 = tested on: MDA-MB-435
SF-268 CNS = tested on: SF-268 CNS
786-0 renal = tested on: 786-0 renal
PC-3 prostate = tested on: PC-3 prostate
COLO 205 colon = tested on: COLO 205 colon
HCC-2998 colon = tested on: HCC-2998 colon
HCT-116 colon = tested on: HCT-116 colon
SK-MEL-2 melanoma = tested on: SK-MEL-2 melanoma

| Structure (SMILES) | GI50 (NCI-H23 lung) | TGI (NCI-H23 lung) | GI50 (NCI-H522 lung) | TGI (NCI-H522 lung) | GI50 (MDA-MB-435) | TGI (MDA-MB-435) | GI50 (SF-268 CNS) | TGI (SF-268 CNS) | GI50 (786-0 renal) | TGI (786-0 renal) | GI50 (PC-3 prostate) | TGI (PC-3 prostate) | GI50 (COLO 205 colon) | TGI (COLO 205 colon) | GI50 (HCC-2998 colon) | TGI (HCC-2998 colon) | GI50 (HCT-116 colon) | TGI (HCT-116 colon) | GI50 (SK-MEL-2 melanoma) | TGI (SK-MEL-2 melanoma) |
| --- | --- | --- | --- | --- | --- | --- | --- | --- | --- | --- | --- | --- | --- | --- | --- | --- | --- | --- | --- | --- |
| O=C1C=CC(=O)N1c1cccc(N2C(=O)C=CC2=O)c1 | 2.54 µM | 7.07 µM | 1.62 µM | 3.04 µM | 3.85 µM | 16.2 µM | 7.09 µM | 19.8 µM | 1.84 µM | 3.44 µM | 13.4 µM | 31.6 µM | 1.39 µM | 2.88 µM | 12.9 µM | 26.4 µM | 1.7 µM | 3.22 µM | 2.52 µM | 5.55 µM |
| Cc1cc(-c2ccccn2)cc(C)c1/C=C/c1cncc(-c2nn[nH]n2)c1 | > 25 µM | > 25 µM | > 25 µM | > 25 µM | > 25 µM | > 25 µM | > 25 µM | > 25 µM | > 25 µM | > 25 µM | > 25 µM | > 25 µM | > 25 µM | > 25 µM | > 25 µM | > 25 µM | > 25 µM | > 25 µM | > 25 µM | > 25 µM |
| N#Cc1cc(S(=O)(=O)Nc2nnc(-c3ccccc3)c(-c3ccccc3)n2)c(SCc2ccccc2)cc1Cl | > 100 µM | > 100 µM | 44.5 µM | > 100 µM | 21.2 µM | 45.1 µM | 29.2 µM | > 100 µM | 24.6 µM | 64.1 µM | 20 µM | 43.2 µM | 40.8 µM | > 100 µM | > 100 µM | > 100 µM | 18.5 µM | 36.2 µM | 41.8 µM | > 100 µM |
| NS(=O)(=O)CC1CC[CH-]CC1.[Cl-].[Cl-].[Cl-].[Cl-].[Cl-].[Sb+5].c1ccncc1 | > 100 µM | > 100 µM | > 100 µM | > 100 µM | > 100 µM | > 100 µM | > 100 µM | > 100 µM | > 100 µM | > 100 µM | > 100 µM | > 100 µM | > 100 µM | > 100 µM | > 100 µM | > 100 µM | > 100 µM | > 100 µM | > 100 µM | > 100 µM |
| Oc1ccc(C2c3ccccc3Oc3ccccc32)c2cccnc12 | 2.26 µM | > 100 µM | 2.57 µM | > 100 µM | 3.07 µM | > 100 µM | 1.29 µM | > 100 µM | 1.64 µM | 4.85 µM | 1.9 µM | > 100 µM | 3.18 µM | > 100 µM | 1.89 µM | > 100 µM | 0.852 µM | > 100 µM | 2.31 µM | 69.5 µM |
| O=C1c2ccccc2-c2c1c1c(O)cccc1n2Cc1ccccn1 | 44.1 µM | > 100 µM | > 100 µM | > 100 µM | 27.4 µM | > 100 µM | 83.5 µM | > 100 µM | > 100 µM | > 100 µM | 43.8 µM | > 100 µM | 61 µM | > 100 µM | 70.9 µM | > 100 µM | 63.5 µM | > 100 µM | > 100 µM | > 100 µM |
| Clc1ccccc1CNc1c2ccccc2nc2ccccc12 | 1.67 µM | 8.9 µM | 5.05 µM | 21.3 µM | 1.96 µM | 8.14 µM | 2.95 µM | 11.4 µM | 2.72 µM | 11 µM | 2.24 µM | 11.9 µM | 1.6 µM | 6.16 µM | 1.5 µM | 5.57 µM | 1.65 µM | 8.1 µM | 3.26 µM | 12.5 µM |
| CC(CN(C)C)Oc1ccccc1NC1=C(Cl)C(=O)C(Nc2ccccc2OC(C)CN(C)C)=C(Cl)C1=O (stereo not given) | 0.273 µM | 0.915 µM | 0.157 µM | 0.337 µM | 0.753 µM | 2.15 µM | 1.49 µM | 3.06 µM | 0.708 µM | 2.01 µM | 1.33 µM | 2.86 µM | 0.174 µM | 0.359 µM | 1.29 µM | 2.91 µM | 0.17 µM | 0.344 µM | 1.34 µM | 2.89 µM |
| O=C(/C=C/C12c3ccccc3C(c3ccccc31)C1C(=O)NC(=O)C12)c1ccc(F)cc1 (stereo not given) | 1.83 µM | 3.91 µM | 2.14 µM | 4.98 µM | 2.44 µM | 6.41 µM | 1.65 µM | 3.2 µM | 1.79 µM | 3.35 µM | 1.66 µM | 3.38 µM | 2.18 µM | 4.27 µM | 1.62 µM | 3.1 µM | 1.58 µM | 3.41 µM | 2.06 µM | 4.23 µM |
| C[C@@H](NC(=O)[C@H](NC(=O)[C@@H]1CCCN1C(=O)CNC(=O)c1ccc(N)cc1)C(C)(C)C)C(=O)NO (H-[4Abz]GP[dTle][dA]-{NHOH}) | > 100 µM | > 100 µM | > 100 µM | > 100 µM | > 100 µM | > 100 µM | > 100 µM | > 100 µM | > 100 µM | > 100 µM | > 100 µM | > 100 µM | > 100 µM | > 100 µM | > 100 µM | > 100 µM | > 100 µM | > 100 µM | > 100 µM | > 100 µM |
| CCc1ccc(C(=Nc2ccc(N(C)C(=O)CN3CCN(C)CC3)cc2)c2c(O)[nH]c3ccc(C(=O)OC)cc23)cc1 | 0.417 µM | 2.03 µM | 0.586 µM | 2.38 µM | 0.532 µM | 1.9 µM | 1.18 µM | 2.8 µM | 0.404 µM | 1.86 µM | 0.292 µM | 1.61 µM | 0.319 µM | 1.7 µM | 0.587 µM | 1.95 µM | 0.0995 µM | 1.12 µM | 1.23 µM | 2.83 µM |
| CCn1c(-c2nonc2N)nc2c(C#CC(C)(C)O)ncc(OC[C@H]3CCCNC3)c21 | 23.5 µM | > 96 µM | 12.2 µM | 33.2 µM | 13.7 µM | 30.3 µM | 16.1 µM | 37.4 µM | 0.46 µM | 16 µM | 10.4 µM | 70.8 µM | 9.75 µM | 26.3 µM | 21.2 µM | > 100 µM | 12.9 µM | > 95.9 µM | 7.57 µM | 23 µM |
| O=C(O)c1c(=O)cccc2ssc12 | 1.75 µM | 3.45 µM | 1.61 µM | 3.24 µM | 1.93 µM | 3.75 µM | 1.73 µM | 3.46 µM | 1.88 µM | 3.44 µM | 1.83 µM | 3.58 µM | 2 µM | 3.91 µM | 1.8 µM | 3.36 µM | 1.62 µM | 3.32 µM | 2.03 µM | 3.83 µM |
| CCCCCCCCCNC(=O)/C=C/c1ccc(O)c(O)c1 | 17.7 µM | 39.2 µM | 0.833 µM | 9.91 µM | 7.58 µM | 23.5 µM | 10.9 µM | 31.9 µM | 14.3 µM | 29.7 µM | 3.61 µM | 36.2 µM | 15.3 µM | 54.3 µM | 16 µM | 31.4 µM | 4.94 µM | 18.4 µM | 17.3 µM | 37.2 µM |
| COc1cc(-c2csc(NC(=O)Nc3ccc(C(F)(F)F)cc3)n2)cc(OC)c1OC | 2.48 µM | 8.81 µM | 1.9 µM | 5.88 µM | 1.71 µM | 3.74 µM | 2.92 µM | 13.7 µM | 1.62 µM | 3.54 µM | 1.84 µM | 8.2 µM | 2.1 µM | 4.5 µM | 2.71 µM | 9.34 µM | 2.32 µM | 8.16 µM | 2.43 µM | 5.81 µM |
| CN1CCN(c2ccc(NC(=O)c3cncnc3Nc3ccc(OCc4ccccn4)c(Cl)c3)cc2)CC1 | 5.07 µM | 11.5 µM | 4.48 µM | 10.4 µM | 0.605 µM | 1.14 µM | 5.03 µM | 11.2 µM | 0.763 µM | 1.68 µM | 3.8 µM | 12 µM | 1.41 µM | 6.19 µM | 4.22 µM | 9.15 µM | 0.788 µM | 1.91 µM | 4.74 µM | 11 µM |
| Oc1c(Cl)cc(Cl)cc1C(c1cc(Cl)cc(Cl)c1O)C(Cl)(Cl)Cl | 1.45 µM | 5.15 µM | 0.964 µM | 26.7 µM | 2.13 µM | 5.12 µM | 2.34 µM | 13.8 µM | 2.4 µM | 7.45 µM | 2.19 µM | 10.9 µM | 1.89 µM | 4.76 µM | 1.91 µM | 5.08 µM | 1.32 µM | 3.67 µM | 2.72 µM | 12 µM |
| O=C1/C(=C/c2ccc(Cl)cc2)CCC/C1=C\c1ccc(Cl)cc1 | 3.06 µM | > 100 µM | 2.78 µM | 8.52 µM | 2.78 µM | 18.8 µM | 3.24 µM | 12.7 µM | 5.55 µM | > 100 µM | 5.46 µM | > 100 µM | 4.17 µM | > 100 µM | 1.75 µM | 3.19 µM | 1.65 µM | 3.02 µM | > 100 µM | > 100 µM |
